Experimental data taken from PMC4089508 (Bioorganic & medicinal chemistry, 2014).

Columns and labels:
[1] = system: SK-OV-3 MDR-1/M-6-6; details: other colchicine site agents; cited from earlier work
[2] = system: 4T-1; assay: Breast cancer/endothelial cell IC50, 4T-1; assay type: cell-based, murine; details: Mus musculus, 4T1, read-out: IC50, 4T-1
[3] = system: HUVEC endothelial cells; assay: Breast cancer/endothelial cell IC50, HUVEC; assay type: cell-based; details: Homo sapiens, read-out: IC50, HUVEC
[4] = system: MDA-MB-435; assay: Breast cancer/endothelial cell IC50, MDA-MB-435; assay type: cell-based; details: Homo sapiens, MDA-MB-435, read-out: IC50, MDA-MB-435
[5] = system: MDA-MB-231; assay: Breast cancer/endothelial cell IC50, MDA-MB-231; assay type: cell-based; details: Homo sapiens, MDA-MB-231, read-out: IC50, MDA-MB-231
[6] = system: MCF-7; assay: Breast cancer/endothelial cell IC50, MCF-7; assay type: cell-based; details: Homo sapiens, MCF7, read-out: IC50, MCF-7
[7] = system: cellular microtubules in A-10 cells; assay: Loss of cellular microtubules, indirect immunofluorescence in A-10 cells; assay type: cell-based
[8] = target: purified porcine brain tubulin (Sus scrofa, UniProt P02554); assay: In vitro tubulin polymerization; details: 10 μM compound
Sequence of purified porcine brain tubulin (P02554 whole entry): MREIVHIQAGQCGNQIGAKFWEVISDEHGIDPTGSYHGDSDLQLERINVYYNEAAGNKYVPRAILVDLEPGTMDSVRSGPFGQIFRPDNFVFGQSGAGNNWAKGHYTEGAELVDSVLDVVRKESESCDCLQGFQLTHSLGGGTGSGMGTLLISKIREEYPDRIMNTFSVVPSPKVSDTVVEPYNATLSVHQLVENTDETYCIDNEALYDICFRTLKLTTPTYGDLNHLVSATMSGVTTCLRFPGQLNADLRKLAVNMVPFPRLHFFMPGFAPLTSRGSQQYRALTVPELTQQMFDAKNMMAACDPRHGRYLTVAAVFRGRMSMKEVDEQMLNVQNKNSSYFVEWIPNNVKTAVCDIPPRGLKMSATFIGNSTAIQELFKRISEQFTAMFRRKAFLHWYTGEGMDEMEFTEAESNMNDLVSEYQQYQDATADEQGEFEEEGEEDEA
Sequence of purified porcine brain tubulin (P02550 whole entry, further chain): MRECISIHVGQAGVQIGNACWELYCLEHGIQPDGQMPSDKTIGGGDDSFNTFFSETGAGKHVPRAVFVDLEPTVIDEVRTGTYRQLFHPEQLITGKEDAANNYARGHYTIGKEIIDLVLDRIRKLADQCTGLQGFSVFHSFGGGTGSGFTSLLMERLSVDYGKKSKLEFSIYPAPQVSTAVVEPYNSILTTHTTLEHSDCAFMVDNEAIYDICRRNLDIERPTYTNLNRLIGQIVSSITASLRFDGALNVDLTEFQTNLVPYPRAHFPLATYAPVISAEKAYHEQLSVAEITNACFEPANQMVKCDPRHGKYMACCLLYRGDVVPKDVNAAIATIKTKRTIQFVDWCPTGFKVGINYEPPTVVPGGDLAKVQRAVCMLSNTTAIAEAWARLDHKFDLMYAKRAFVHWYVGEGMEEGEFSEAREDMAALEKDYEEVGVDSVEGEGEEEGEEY

[9] = system: HeLa cells; assay: Cell cycle analysis by flow cytometry; assay type: cell-based; details: 40 and 50 nM 11, 75 and 100 nM 21, 18 h
[10] = system: MDA-MB-435 cells; assay: Apoptosis detection, Western blot of cleaved PARP; assay type: cell-based, human
[11] = system: SK-OV-3 MDR-1/M-6-6; assay: cells; details: Homo sapiens, SKOV3-MDR1-M6/6, read-out: Antiproliferative activity IC50, SK-OV-3 MDR-1/M-6-6
[12] = system: 4T1 orthotopic allograft; assay: 4T1 triple negative breast orthotopic allograft model; details: 4T1 orthotopic model
[13] = system: MDA-MB-435 flank xenograft; assay: MDA-MB-435 flank xenograft model; assay type: in vivo, NCr athymic nu/nu mice; details: vs carrier treated mice

Question: Which “Rr (relative resistance), Pgp-expressing SK-OV-3 pair” value [1] does the source give for `COc1cc2c(cc1O)CC[C@@H]1[C@@H]2CC[C@]2(C)[C@@H](O)CC[C@@H]12` [2-methoxyestradiol] here?
Answer: 1.5–2.6

Question: What does the source list for `COc1ccc(/C=C\c2cc(OC)c(OC)c(OC)c2)cc1O` [CA-4, combretastatin A-4]?
Answer: IC50 [2]: 69.6 ± 8 nM; IC50 [3]: 17.7 ± 3.6 nM; IC50 [4]: 52.2 nM; IC50 [5]: 228 ± 2.9 nM; IC50 [6]: 24.9 ± 1.4 nM

Question: With `COc1ccc(Nc2nc(C)nc3oc(C)cc23)cc1` [Compound 10, N-(4-methoxyphenyl)-2,6-dimethylfuro[2,3-d]pyrimidin-4-amine] as the compound, how does the “effect on cellular microtubules” value [7] read?
Answer: inactive

Question: For `COc1ccc(N(C)c2nc(C)nc3oc(C)cc23)cc1` [Compound 11, N-(4-methoxyphenyl)-N,2,6-trimethylfuro[2,3-d]pyrimidin-4-amine], which “inhibition of polymerization of purified tubulin” value [8] is on record?
Answer: almost completely inhibited the polymerization of tubulin

Question: And the “effect on cell cycle distribution (G2/M)” value [9]?
Answer: initiated mitotic accumulation

Question: What about the “cleaved PARP level” value ([10]; 75 nM 11, 18 h) of the same compound?
Answer: slight increase in cleaved PARP

Question: What about the “cleaved PARP level” value ([10]; 36 h, 75 nM 11, 120 nM 21) of the same compound?
Answer: much higher levels of cleaved PARP

Question: For `CCCCN(c1ccc(OC)cc1)c1nc(C)nc2oc(C)cc12` [Compound 14, N-butyl-N-(4-methoxyphenyl)-2,6-dimethylfuro[2,3-d]pyrimidin-4-amine], which IC50 [11] is on record?
Answer: > 10000 nM

Question: For `COc1ccc(N(C)c2nc(C)nc3oc(C)cc23)cc1.Cl` [Compound 21, N-(4-methoxyphenyl)-N,2,6-trimethylfuro[2,3-d]pyrimidin-4-amine hydrochloride], which “inhibition of polymerization of purified tubulin” value [8] is on record?
Answer: almost completely inhibited the polymerization of tubulin

Question: What about the “effect on cell cycle distribution (G2/M)” value [9] of the same compound?
Answer: initiated dose-dependent mitotic accumulation

Question: And the animal weight loss [12]?
Answer: less weight loss than docetaxel

Question: And the primary tumor growth ([12]; 21 twice weekly at MTD)?
Answer: as active as docetaxel at reducing primary tumor growth

Question: What about the lung metastases ([12]; compared to docetaxel) of the same compound?
Answer: reduced the size (Figure 9D; metastases at arrows) but not the number

Question: And the “tumor vascular density (CD31/PECAM-1 staining)” value [13]?
Answer: decreased tumor vascular density

Question: And the “effect on cellular microtubules” value [7]?
Answer: dose-dependent loss of cellular microtubules

Question: What about the EC50 ([7]; read-out: EC50 for microtubule depolymerization, 18 h, 50% loss of cellular microtubules) of the same compound?
Answer: 570 nM
